“And” between values parts separate entries of the source, which are not always exact repeats. Identical values can stand only once.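 Cultured in 96-well plates, cells were exposed to test compound for 48 hours across five concentrations. At the GI50, growth is halved.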 The source made the active and inactive calls. Rule as the data show it: active = GI50 up to about 1.1 µM and inactive = higher.
Tests used:
Assay in all cases: NCI-60 cell line screen, 48 h
[1] = system: A549
[2] = system: CCRF-CEM
[3] = system: DU-145
[4] = system: HOP-92
[5] = system: KM12
[6] = system: M14
[7] = system: Malme-3M
[8] = system: NCI-H460
[9] = system: OVCAR-4
[10] = system: OVCAR-8
[11] = system: RPMI-8226
[12] = system: SF-295
[13] = system: SF-539
[14] = system: SK-MEL-5
[15] = system: SNB-19
[16] = system: SR
[17] = system: SW-620
[18] = system: U-251
[19] = system: UACC-257
[20] = system: MDA-N

SMILES	GI50 [1]	GI50 [2]	GI50 [3]	GI50 [4]	GI50 [5]	GI50 [6]	GI50 [7]	GI50 [8]	GI50 [9]	GI50 [10]	GI50 [11]	GI50 [12]	GI50 [13]	GI50 [14]	GI50 [15]	GI50 [16]	GI50 [17]	GI50 [18]	GI50 [19]	GI50 [20]
NC(=S)N/N=C1\CCCC1C(O)(C(F)(F)Cl)C(F)(F)Cl (stereo unspecified)	> 10 µM (inactive)	> 10 µM (inactive)	> 10 µM (inactive)	> 10 µM (inactive)	> 10 µM (inactive)	> 10 µM (inactive)	> 10 µM (inactive)	> 10 µM (inactive)	> 10 µM (inactive)	> 10 µM (inactive)	> 10 µM (inactive)	> 10 µM (inactive)	> 10 µM (inactive)	2.01 µM (inactive)	> 10 µM (inactive)	> 10 µM (inactive)	> 10 µM (inactive)	> 10 µM (inactive)	> 10 µM (inactive)	
S=c1[nH]nc(Cn2c3ccc(Br)cc3c3nc4ccccc4nc32)o1	22.8 µM (inactive)	24.7 µM (inactive)	36.6 µM (inactive)		47.3 µM (inactive)	4.55 µM (inactive)	42.3 µM (inactive)	36.9 µM (inactive)		43.2 µM (inactive)	4.29 µM (inactive)	42.9 µM (inactive)	30.4 µM (inactive)	31.6 µM (inactive)	53 µM (inactive)	0.568 µM (active)	18.7 µM (inactive)	0.944 µM (active)	> 58.6 µM (inactive)	41 µM (inactive)
Clc1n[nH]c2ccccc12	> 100 µM (inactive)	> 100 µM (inactive)	> 100 µM (inactive)	> 100 µM (inactive)	> 100 µM (inactive)	> 100 µM (inactive)	> 100 µM (inactive)	> 100 µM (inactive)	> 100 µM (inactive)	> 100 µM (inactive)	> 100 µM (inactive)	> 100 µM (inactive)	> 100 µM (inactive)	> 100 µM (inactive)	> 100 µM (inactive)		> 100 µM (inactive)	> 100 µM (inactive)	> 100 µM (inactive)	> 100 µM (inactive)
O=C(NCCNCCO)N/N=C/c1ccc(Cl)cc1	> 100 µM (inactive)	> 100 µM (inactive)	> 100 µM (inactive)		> 100 µM (inactive)	> 100 µM (inactive)	> 100 µM (inactive)	> 100 µM (inactive)		> 100 µM (inactive)		> 100 µM (inactive)	> 100 µM (inactive)	> 100 µM (inactive)	> 100 µM (inactive)	> 100 µM (inactive)	> 100 µM (inactive)	> 100 µM (inactive)	> 100 µM (inactive)	> 100 µM (inactive)
O=c1c(Cl)c(Cl)cnn1-c1ccccc1	20.3 µM (inactive) and 10.8 µM (inactive)		14.7 µM (inactive) and 12.5 µM (inactive)		8.91 µM (inactive) and 7.94 µM (inactive)	1.74 µM (inactive) and 1.76 µM (inactive)	3.46 µM (inactive) and 3.02 µM (inactive)	2.92 µM (inactive) and 3.72 µM (inactive)	2.19 µM (inactive) and 1.53 µM (inactive)	3.85 µM (inactive) and 2.39 µM (inactive)	5.92 µM (inactive) and 7.26 µM (inactive)					2.14 µM (inactive) and 1.61 µM (inactive)		3.51 µM (inactive) and 1.79 µM (inactive)	13 µM (inactive) and 6.85 µM (inactive)	2.14 µM (inactive) and 1.81 µM (inactive)
COc1ccc(-c2c(/C=N/OCC(=O)O)c3sc4ccccc4n3c2/C=N/OCC(=O)O)cc1	> 50 µM (inactive)	> 50 µM (inactive)	> 50 µM (inactive)	21.8 µM (inactive)	> 50 µM (inactive)	> 50 µM (inactive)	> 50 µM (inactive)	> 50 µM (inactive)	> 50 µM (inactive)	> 50 µM (inactive)		> 50 µM (inactive)		> 50 µM (inactive)	> 50 µM (inactive)		> 50 µM (inactive)	> 50 µM (inactive)	> 50 µM (inactive)	> 50 µM (inactive)
CSC(=O)c1sc(SC)[n+](-c2ccccc2)c1O	> 100 µM (inactive)	8.28 µM (inactive)	16 µM (inactive)		> 10 µM (inactive)	14.3 µM (inactive)	21.6 µM (inactive)	27.9 µM (inactive)	12.1 µM (inactive)	22.8 µM (inactive)	21.5 µM (inactive)	14.9 µM (inactive)	15.1 µM (inactive)	20.8 µM (inactive)	19.6 µM (inactive)	29.8 µM (inactive)	15.5 µM (inactive)	16.5 µM (inactive)		17 µM (inactive)
Cc1ccc(N2C=Nn3c(nc4sc5c(c4c3=O)CCCC5)C2)cc1	47.4 µM (inactive)	45.2 µM (inactive)	69.3 µM (inactive)	> 100 µM (inactive)	62.4 µM (inactive)	65.5 µM (inactive)	49.4 µM (inactive)	50.1 µM (inactive)	37.8 µM (inactive)	62.1 µM (inactive)	32.1 µM (inactive)	44.8 µM (inactive)		29.8 µM (inactive)	78.2 µM (inactive)		51.8 µM (inactive)	46.7 µM (inactive)	54.8 µM (inactive)	70.5 µM (inactive)
C=C1c2ccccc2Oc2nc3nc(N)c(C#N)c(N)c3c(N)c21	30.1 µM (inactive)	23.7 µM (inactive)	43.7 µM (inactive)	55.2 µM (inactive)	18.6 µM (inactive)	29.6 µM (inactive)	22.8 µM (inactive)	16 µM (inactive)	42.6 µM (inactive)	16.4 µM (inactive)	24.4 µM (inactive)	30.3 µM (inactive)	20 µM (inactive)	17.6 µM (inactive)	40.7 µM (inactive)		30.5 µM (inactive)	30.2 µM (inactive)	53.1 µM (inactive)	38.4 µM (inactive)
CCOP(=O)(/C=C\n1cc(C)c(=O)[nH]c1=O)OCC	> 100 µM (inactive)	> 100 µM (inactive)	> 100 µM (inactive)		> 100 µM (inactive)	> 100 µM (inactive)		> 100 µM (inactive)	> 100 µM (inactive)	> 100 µM (inactive)	> 100 µM (inactive)	> 100 µM (inactive)	> 100 µM (inactive)	> 100 µM (inactive)	> 100 µM (inactive)		> 100 µM (inactive)	> 100 µM (inactive)	> 100 µM (inactive)	> 100 µM (inactive)
Cn1c(=O)cc(Nc2ccc(N)cc2)[nH]c1=O	> 100 µM (inactive)	> 100 µM (inactive)		> 100 µM (inactive)	> 100 µM (inactive)	> 100 µM (inactive)	> 100 µM (inactive)	> 100 µM (inactive)	> 100 µM (inactive)	> 100 µM (inactive)	> 100 µM (inactive)	> 100 µM (inactive)	> 100 µM (inactive)	> 100 µM (inactive)	> 100 µM (inactive)	> 100 µM (inactive)	> 100 µM (inactive)	> 100 µM (inactive)	> 100 µM (inactive)	> 100 µM (inactive)
CN(CCNC(=O)c1cn(C)c2c1ccc1ccccc12)CCNC(=O)c1cn(C)c2c1ccc1ccccc12	3.59 µM (inactive)	2.44 µM (inactive)	2.1 µM (inactive)	2.07 µM (inactive)	1.79 µM (inactive)	1.95 µM (inactive)	2.14 µM (inactive)	1.85 µM (inactive)	5.62 µM (inactive)	27.9 µM (inactive)	2.59 µM (inactive)	3.05 µM (inactive)	1.76 µM (inactive)	2.6 µM (inactive)	3.57 µM (inactive)		2.7 µM (inactive)	2.04 µM (inactive)	2.12 µM (inactive)	2.22 µM (inactive)
CSc1csc(-c2ccc(-c3ccc(-c4cc(SC)cs4)s3)s2)c1	> 100 µM (inactive)	> 100 µM (inactive)			> 100 µM (inactive)	> 100 µM (inactive)	> 100 µM (inactive)	> 100 µM (inactive)	> 100 µM (inactive)		> 100 µM (inactive)	> 100 µM (inactive)	> 100 µM (inactive)	> 100 µM (inactive)	> 100 µM (inactive)	> 100 µM (inactive)	> 100 µM (inactive)	> 100 µM (inactive)	> 100 µM (inactive)	> 100 µM (inactive)
CC(=O)Oc1ccc2c(-c3ccccc3)c(Oc3ccc(Cl)cc3)c(=O)oc2c1	13.7 µM (inactive)	15.4 µM (inactive)	14.4 µM (inactive)	10.4 µM (inactive)	14.4 µM (inactive)	19.8 µM (inactive)	15.6 µM (inactive)	14.7 µM (inactive)	15.2 µM (inactive)	18.5 µM (inactive)	47.1 µM (inactive)	17.9 µM (inactive)	16.4 µM (inactive)	18 µM (inactive)	14.4 µM (inactive)	28.8 µM (inactive)	20.3 µM (inactive)	4.19 µM (inactive)	21.3 µM (inactive)	
Cc1ccc(C(=O)O)c(/C=C2\Cc3cc(C)cc(C)c3C2=O)c1	78.2 µM (inactive)	35.7 µM (inactive)	> 100 µM (inactive)		65.2 µM (inactive)		96.4 µM (inactive)	49.2 µM (inactive)		82.2 µM (inactive)	73.6 µM (inactive)	> 100 µM (inactive)	75.9 µM (inactive)	35.7 µM (inactive)	> 100 µM (inactive)	46 µM (inactive)	> 100 µM (inactive)	78.5 µM (inactive)	90.6 µM (inactive)	56.5 µM (inactive)

From ChEMBL document CHEMBL1201862, “PubChem BioAssay data set” (2004)
